Source: patent US20220402882A1, “HERBICIDAL COMPOUNDS” (SYNGENTA CROP PROTECTION AG, priority 2019, published 2022)

Key:
Format in all cases: in vivo
Details in all cases: 125 g/h, evaluated after 13 days
[1] = test system: Abutilon theophrasti (ABUTH); assay: Pre-emergence glasshouse herbicide test
Description: (§1) Seeds of a variety of test species are sown in standard soil in pots (Lolium perenne (LOLPE), Amaranthus retoflexus (AMARE), Abutilon theophrasti (ABUTH), Setaria faberi (SETFA), Echinochloa crus-galli (ECHCG), Ipomoea hederacea (IPOHE)). After cultivation for one day (pre-emergence) or after 8 days cultivation (post-emergence) under controlled conditions in a glasshouse (at 24/16° C., day/night; 14 hours light; 65% humidity), the plants are sprayed with an aqueous spray solution derived from the formulation of the technical active ingredient in acetone/water (50:50) solution containing 0.5% Tween™ 20 (polyoxyethelyene sorbitan monolaurate, CAS RN 9005-64-5). Compounds are applied at 125 g/h unless otherwise indicated. The test plants are then grown in a glasshouse under controlled conditions in a glasshouse (at 24/16° C., day/night; 14 hours light; 65% humidity) and watered twice daily. After 13 days for pre- and post-emergence, the test is evaluated for the percentage damage caused to the plant. The biological activities are shown in the following table on a five-point scale (5=80-100%; 4=60-79%; 3=40-59%; 2=20-39%; 1=0-19%).

[2] = test system: Amaranthus retoflexus (AMARE); assay: Pre-emergence glasshouse herbicide test
Description: as §1

[3] = test system: Echinochloa crus-galli (ECHCG); assay: Pre-emergence glasshouse herbicide test
Description: as §1

[4] = test system: Ipomoea hederacea (IPOHE); assay: Pre-emergence glasshouse herbicide test
Description: as §1

Setaria faberi (SETFA) [5] = assay: Pre-emergence glasshouse herbicide test
Description: as §1

[6] = test system: Abutilon theophrasti (ABUTH); assay: Post-emergence glasshouse herbicide test
Description: as §1

[7] = test system: Amaranthus retoflexus (AMARE); assay: Post-emergence glasshouse herbicide test
Description: as §1

[8] = test system: Echinochloa crus-galli (ECHCG); assay: Post-emergence glasshouse herbicide test
Description: as §1

[9] = test system: Ipomoea hederacea (IPOHE); assay: Post-emergence glasshouse herbicide test
Description: as §1

Setaria faberi (SETFA) [10] = assay: Post-emergence glasshouse herbicide test
Description: as §1

| Structure (SMILES) | percentage damage caused to the plant, ABUTH [1] | percentage damage caused to the plant, AMARE [2] | percentage damage caused to the plant, ECHCG [3] | percentage damage caused to the plant, IPOHE [4] | percentage damage caused to the plant, SETFA (Setaria faberi (SETFA) [5]) | percentage damage caused to the plant, ABUTH [6] | percentage damage caused to the plant, AMARE [7] | percentage damage caused to the plant, ECHCG [8] | percentage damage caused to the plant, IPOHE [9] | percentage damage caused to the plant, SETFA (Setaria faberi (SETFA) [10]) |
| --- | --- | --- | --- | --- | --- | --- | --- | --- | --- | --- |
| CCSc1c(OC(F)F)ccc(C(=O)Nc2nnnn2C)c1C [Compound 1.028] | 5 (5=80-100%) | 5 (5=80-100%) | 5 (5=80-100%) | 3 (3=40-59%) | 5 (5=80-100%) | 5 (5=80-100%) | 5 (5=80-100%) | 5 (5=80-100%) | 5 (5=80-100%) | 5 (5=80-100%) |
| CC[S+]([O-])c1c(OC(F)F)ccc(C(=O)Nc2nnnn2C)c1C (centres unmarked) [Compound 1.029] | 5 (5=80-100%) | 5 (5=80-100%) | 5 (5=80-100%) | 4 (4=60-79%) | 5 (5=80-100%) | 5 (5=80-100%) | 5 (5=80-100%) | 5 (5=80-100%) | 5 (5=80-100%) | 5 (5=80-100%) |
| CCSc1c(OC(F)(F)F)ccc(C(=O)Nc2nnnn2C)c1C [Compound 1.030] | 5 (5=80-100%) | 5 (5=80-100%) | 5 (5=80-100%) | 3 (3=40-59%) | 5 (5=80-100%) | 5 (5=80-100%) | 5 (5=80-100%) | 5 (5=80-100%) | 5 (5=80-100%) | 5 (5=80-100%) |
| CCS(=O)(=O)c1c(OC(F)F)ccc(C(=O)Nc2nnnn2C)c1C [Compound 1.031] | 5 (5=80-100%) | 5 (5=80-100%) | 5 (5=80-100%) | 5 (5=80-100%) | 5 (5=80-100%) | 5 (5=80-100%) | 5 (5=80-100%) | 5 (5=80-100%) | 5 (5=80-100%) | 5 (5=80-100%) |
| Cn1nnnc1NC(=O)c1ccc(OCC(F)F)c([S+](C)[O-])c1Cl (centres unmarked) [Compound 1.034] | 3 (3=40-59%) | 4 (4=60-79%) | 4 (4=60-79%) | 2 (2=20-39%) | 4 (4=60-79%) | 4 (4=60-79%) | 4 (4=60-79%) | 5 (5=80-100%) | 3 (3=40-59%) | 4 (4=60-79%) |
| CCS(=O)(=O)c1c(OCC(F)(F)F)ccc(C(=O)Nc2nnnn2C)c1Cl [Compound 1.035] | 5 (5=80-100%) | 5 (5=80-100%) | 5 (5=80-100%) | 5 (5=80-100%) | 5 (5=80-100%) | 5 (5=80-100%) | 5 (5=80-100%) | 5 (5=80-100%) | 5 (5=80-100%) | 5 (5=80-100%) |
| CC[S+]([O-])c1c(OCC(F)(F)F)ccc(C(=O)Nc2nnnn2C)c1Cl (centres unmarked) [Compound 1.036] | 5 (5=80-100%) | 5 (5=80-100%) | 5 (5=80-100%) | 4 (4=60-79%) | 5 (5=80-100%) | 5 (5=80-100%) | 5 (5=80-100%) | 5 (5=80-100%) | 5 (5=80-100%) | 5 (5=80-100%) |
| CCSc1c(OCC(F)(F)F)ccc(C(=O)Nc2nnnn2C)c1Cl [Compound 1.037] | 3 (3=40-59%) | 5 (5=80-100%) | 4 (4=60-79%) | 1 (1=0-19%) | 3 (3=40-59%) | 5 (5=80-100%) | 5 (5=80-100%) | 5 (5=80-100%) | 3 (3=40-59%) | 5 (5=80-100%) |
| CCSc1c(OCC(F)(F)F)ccc(C(=O)Nc2nnnn2C)c1C [Compound 1.038] | 4 (4=60-79%) | 5 (5=80-100%) | 2 (2=20-39%) | 2 (2=20-39%) | 2 (2=20-39%) | 5 (5=80-100%) | 5 (5=80-100%) | 5 (5=80-100%) | 4 (4=60-79%) | 5 (5=80-100%) |
| CC[S+]([O-])c1c(OCC(F)(F)F)ccc(C(=O)Nc2nnnn2C)c1C (centres unmarked) [Compound 1.039] | 5 (5=80-100%) | 5 (5=80-100%) | 4 (4=60-79%) | 4 (4=60-79%) | 4 (4=60-79%) | 5 (5=80-100%) | 5 (5=80-100%) | 5 (5=80-100%) | 4 (4=60-79%) | 5 (5=80-100%) |
| CCS(=O)(=O)c1c(OCC(F)(F)F)ccc(C(=O)Nc2nnnn2C)c1C [Compound 1.040] | 5 (5=80-100%) | 5 (5=80-100%) | 5 (5=80-100%) | 5 (5=80-100%) | 5 (5=80-100%) | 5 (5=80-100%) | 5 (5=80-100%) | 5 (5=80-100%) | 5 (5=80-100%) | 5 (5=80-100%) |
| CCn1nnnc1NC(=O)c1ccc(OC(F)(F)F)c(S(=O)(=O)CC)c1C [Compound 1.046] | 5 (5=80-100%) | 5 (5=80-100%) | 5 (5=80-100%) | 5 (5=80-100%) | 5 (5=80-100%) | 5 (5=80-100%) | 5 (5=80-100%) | 5 (5=80-100%) | 5 (5=80-100%) | 5 (5=80-100%) |
| CCn1nnnc1NC(=O)c1ccc(OC(F)(F)F)c(S(=O)(=O)CC)c1Cl [Compound 1.047] | 5 (5=80-100%) | 5 (5=80-100%) | 5 (5=80-100%) | 5 (5=80-100%) | 5 (5=80-100%) | 5 (5=80-100%) | 5 (5=80-100%) | 5 (5=80-100%) | 5 (5=80-100%) | 5 (5=80-100%) |
| CCn1nnnc1NC(=O)c1ccc(OC(F)F)c(S(=O)(=O)CC)c1C [Compound 1.048] | 5 (5=80-100%) | 5 (5=80-100%) | 5 (5=80-100%) | 5 (5=80-100%) | 5 (5=80-100%) | 5 (5=80-100%) | 5 (5=80-100%) | 5 (5=80-100%) | 5 (5=80-100%) | 5 (5=80-100%) |
